# Data reported in US20240238242A1, “EGCG buccal tablet and use thereof” (priority 2023, published 2024).
# “And” between values parts separate entries of the source, which are not always exact repeats. Identical values can stand only once. Like-named read-outs stand apart in the source and are kept apart here.
# Test system: Influenza A virus neuraminidase inhibitor-resistant strain (ZX-1109)
# Format: cell-based
structure (smiles),measurement,setting,value
"O=C(O[C@@H]1Cc2c(O)cc(O)cc2O[C@@H]1c1cc(O)c(O)c(O)c1)c1cc(O)c(O)c(O)c1 [EGCG, Epigallocatechin gallate]",CPE test per cell well,"0.2 mM EGCG + ZX1109 virus, 1 minute, second experiment, dilution factor 10^1, wells 1-10",+
same,CPE test per cell well,"0.2 mM EGCG + ZX1109 virus, 1 minute, second experiment, dilution factor 10^2, wells 1-10",+
same,CPE test per cell well,"0.2 mM EGCG + ZX1109 virus, 1 minute, second experiment, dilution factor 10^3, wells 1-10",+
same,CPE test per cell well,"0.2 mM EGCG + ZX1109 virus, 1 minute, second experiment, dilution factor 10^4, wells 1-10",+
same,CPE test per cell well,"0.2 mM EGCG + ZX1109 virus, 1 minute, second experiment, dilution factor 10^5, wells 1-10",+ and −
same,CPE test per cell well,"0.2 mM EGCG + ZX1109 virus, 1 minute, second experiment, dilution factor 10^6, wells 1-10",−
same,CPE test per cell well,"0.2 mM EGCG + ZX1109 virus, 1 minute, second experiment, dilution factor 10^7, wells 1-10",−
same,CPE test per cell well,"0.2 mM EGCG + ZX1109 virus, 1 minute, second experiment, dilution factor 10^8, wells 1-10",−
same,CPE test per cell well,"0.2 mM EGCG + ZX-1109 virus, 1 minute, first experiment, dilution factor 10^1, wells 1-10",+
same,CPE test per cell well,"0.2 mM EGCG + ZX-1109 virus, 1 minute, first experiment, dilution factor 10^2, wells 1-10",+
same,CPE test per cell well,"0.2 mM EGCG + ZX-1109 virus, 1 minute, first experiment, dilution factor 10^3, wells 1-10",+
same,CPE test per cell well,"0.2 mM EGCG + ZX-1109 virus, 1 minute, first experiment, dilution factor 10^4, wells 1-10",+
same,CPE test per cell well,"0.2 mM EGCG + ZX-1109 virus, 1 minute, first experiment, dilution factor 10^5, wells 1-10",+ and −
same,CPE test per cell well,"0.2 mM EGCG + ZX-1109 virus, 1 minute, first experiment, dilution factor 10^6, wells 1-10",+ and −
same,CPE test per cell well,"0.2 mM EGCG + ZX-1109 virus, 1 minute, first experiment, dilution factor 10^7, wells 1-10",−
same,CPE test per cell well,"0.2 mM EGCG + ZX-1109 virus, 1 minute, first experiment, dilution factor 10^8, wells 1-10",−
same,CPE test (virus replication in the cell wells),"0.2 mM EGCG + ZX-1109 virus, 1 minute, third experiment, dilution factor 10^1, wells 1-10",+
same,CPE test (virus replication in the cell wells),"0.2 mM EGCG + ZX-1109 virus, 1 minute, third experiment, dilution factor 10^2, wells 1-10",+
same,CPE test (virus replication in the cell wells),"0.2 mM EGCG + ZX-1109 virus, 1 minute, third experiment, dilution factor 10^3, wells 1-10",+
same,CPE test (virus replication in the cell wells),"0.2 mM EGCG + ZX-1109 virus, 1 minute, third experiment, dilution factor 10^4, wells 1-10",+
same,CPE test (virus replication in the cell wells),"0.2 mM EGCG + ZX-1109 virus, 1 minute, third experiment, dilution factor 10^5, wells 1-10",− and +
same,CPE test (virus replication in the cell wells),"0.2 mM EGCG + ZX-1109 virus, 1 minute, third experiment, dilution factor 10^6, wells 1-10",+ and −
same,CPE test (virus replication in the cell wells),"0.2 mM EGCG + ZX-1109 virus, 1 minute, third experiment, dilution factor 10^7, wells 1-10",−
same,CPE test (virus replication in the cell wells),"0.2 mM EGCG + ZX-1109 virus, 1 minute, third experiment, dilution factor 10^8, wells 1-10",−
same,CPE test (virus replication in the cell wells),"0.2 mM EGCG + ZX-1109 virus, 5 minute, first experiment, dilution factor 10^1, wells 1-10",+
same,CPE test (virus replication in the cell wells),"0.2 mM EGCG + ZX-1109 virus, 5 minute, first experiment, dilution factor 10^2, wells 1-10",+
same,CPE test (virus replication in the cell wells),"0.2 mM EGCG + ZX-1109 virus, 5 minute, first experiment, dilution factor 10^3, wells 1-10",+
same,CPE test (virus replication in the cell wells),"0.2 mM EGCG + ZX-1109 virus, 5 minute, first experiment, dilution factor 10^4, wells 1-10",+
same,CPE test (virus replication in the cell wells),"0.2 mM EGCG + ZX-1109 virus, 5 minute, first experiment, dilution factor 10^5, wells 1-10",+
same,CPE test (virus replication in the cell wells),"0.2 mM EGCG + ZX-1109 virus, 5 minute, first experiment, dilution factor 10^6, wells 1-10",− and +
same,CPE test (virus replication in the cell wells),"0.2 mM EGCG + ZX-1109 virus, 5 minute, first experiment, dilution factor 10^7, wells 1-10",− and +
same,CPE test (virus replication in the cell wells),"0.2 mM EGCG + ZX-1109 virus, 5 minute, first experiment, dilution factor 10^8, wells 1-10",− and +
same,CPE test (virus replication in the cell wells),"0.2 mM EGCG + ZX-1109 virus, 5 minute, second experiment, dilution factor 10^1, wells 1-10",+
same,CPE test (virus replication in the cell wells),"0.2 mM EGCG + ZX-1109 virus, 5 minute, second experiment, dilution factor 10^2, wells 1-10",+
same,CPE test (virus replication in the cell wells),"0.2 mM EGCG + ZX-1109 virus, 5 minute, second experiment, dilution factor 10^3, wells 1-10",+
same,CPE test (virus replication in the cell wells),"0.2 mM EGCG + ZX-1109 virus, 5 minute, second experiment, dilution factor 10^4, wells 1-10",+
same,CPE test (virus replication in the cell wells),"0.2 mM EGCG + ZX-1109 virus, 5 minute, second experiment, dilution factor 10^5, wells 1-10",+ and −
same,CPE test (virus replication in the cell wells),"0.2 mM EGCG + ZX-1109 virus, 5 minute, second experiment, dilution factor 10^6, wells 1-10",− and +
same,CPE test (virus replication in the cell wells),"0.2 mM EGCG + ZX-1109 virus, 5 minute, second experiment, dilution factor 10^7, wells 1-10",−
same,CPE test per cell well,"0.2 mM EGCG + ZX-1109 virus, 5 minute, third experiment, dilution factor 10^1, wells 1-10",+
same,CPE test per cell well,"0.2 mM EGCG + ZX-1109 virus, 5 minute, third experiment, dilution factor 10^2, wells 1-10",+
same,CPE test per cell well,"0.2 mM EGCG + ZX-1109 virus, 5 minute, third experiment, dilution factor 10^3, wells 1-10",+
same,CPE test per cell well,"0.2 mM EGCG + ZX-1109 virus, 5 minute, third experiment, dilution factor 10^4, wells 1-10",+
same,CPE test per cell well,"0.2 mM EGCG + ZX-1109 virus, 5 minute, third experiment, dilution factor 10^5, wells 1-10",+
same,CPE test per cell well,"0.2 mM EGCG + ZX-1109 virus, 5 minute, third experiment, dilution factor 10^6, wells 1-10",+ and −
same,CPE test per cell well,"0.2 mM EGCG + ZX-1109 virus, 5 minute, third experiment, dilution factor 10^7, wells 1-10",+ and −
same,CPE test per cell well,"0.2 mM EGCG + ZX-1109 virus, 5 minute, third experiment, dilution factor 10^8, wells 1-10",− and +
same,average inactivation efficiency against virus,"0.2 mM EGCG, ZX1109 virus, 5 minutes, three experiments",92.16%
same,residual virus titer of EGCG+virus group (Karber method),"0.2 mM EGCG, ZX-1109 virus, 5 minutes",10^7 TCID50/50 μL
same,inactivation efficiency against the virus,"0.2 mM EGCG, ZX-1109 virus, 5 minutes, single experiment",98.42% and 98.00% and 80.05%
same,CPE test per cell well,"1 mM EGCG + ZX1109 virus, 1 minute, second experiment, dilution factor 10^1, wells 1-10",+
same,CPE test per cell well,"1 mM EGCG + ZX1109 virus, 1 minute, second experiment, dilution factor 10^2, wells 1-10",+
same,CPE test per cell well,"1 mM EGCG + ZX1109 virus, 1 minute, second experiment, dilution factor 10^3, wells 1-10",+
same,CPE test per cell well,"1 mM EGCG + ZX1109 virus, 1 minute, second experiment, dilution factor 10^4, wells 1-10",+
same,CPE test per cell well,"1 mM EGCG + ZX1109 virus, 1 minute, second experiment, dilution factor 10^5, wells 1-10",− and +
same,CPE test per cell well,"1 mM EGCG + ZX1109 virus, 1 minute, second experiment, dilution factor 10^6, wells 1-10",−
same,CPE test per cell well,"1 mM EGCG + ZX1109 virus, 1 minute, second experiment, dilution factor 10^7, wells 1-10",−
same,CPE test per cell well,"1 mM EGCG + ZX1109 virus, 1 minute, second experiment, dilution factor 10^8, wells 1-10",−
same,CPE test per cell well,"1 mM EGCG + ZX-1109 virus, 1 minute, first experiment, dilution factor 10^1, wells 1-10",+
same,CPE test per cell well,"1 mM EGCG + ZX-1109 virus, 1 minute, first experiment, dilution factor 10^2, wells 1-10",+
same,CPE test per cell well,"1 mM EGCG + ZX-1109 virus, 1 minute, first experiment, dilution factor 10^3, wells 1-10",+
same,CPE test per cell well,"1 mM EGCG + ZX-1109 virus, 1 minute, first experiment, dilution factor 10^4, wells 1-10",+
same,CPE test per cell well,"1 mM EGCG + ZX-1109 virus, 1 minute, first experiment, dilution factor 10^5, wells 1-10",+ and −
same,CPE test per cell well,"1 mM EGCG + ZX-1109 virus, 1 minute, first experiment, dilution factor 10^6, wells 1-10",−
same,CPE test per cell well,"1 mM EGCG + ZX-1109 virus, 1 minute, first experiment, dilution factor 10^7, wells 1-10",−
same,CPE test per cell well,"1 mM EGCG + ZX-1109 virus, 1 minute, first experiment, dilution factor 10^8, wells 1-10",−
same,CPE test (virus replication in the cell wells),"1 mM EGCG + ZX-1109 virus, 1 minute, third experiment, dilution factor 10^1, wells 1-10",+
same,CPE test (virus replication in the cell wells),"1 mM EGCG + ZX-1109 virus, 1 minute, third experiment, dilution factor 10^2, wells 1-10",+
same,CPE test (virus replication in the cell wells),"1 mM EGCG + ZX-1109 virus, 1 minute, third experiment, dilution factor 10^3, wells 1-10",+
same,CPE test (virus replication in the cell wells),"1 mM EGCG + ZX-1109 virus, 1 minute, third experiment, dilution factor 10^4, wells 1-10",+
same,CPE test (virus replication in the cell wells),"1 mM EGCG + ZX-1109 virus, 1 minute, third experiment, dilution factor 10^5, wells 1-10",+ and −
